Results from patent US10729628B2, “Tyrosinase inhibitors” (Conopco, Inc., priority 2015, dated 2020).

What was measured:
mushroom tyrosinase (MT) = assay: Tyrosinase assay by oxidation of DOPA, mushroom tyrosinase; format: biochemical; conditions: 37° C., 45 minutes; for OD475 nm (MT): background-corrected, uninhibited enzyme control 0.17
Protocol: (§1) The (tyrosinase) inhibitory activity of a, b, c and d was measured by oxidation of DOPA. Each crown ether was tested against human Tyrosinase (in the form of melanocytic extract) and commercial (Worthington, USA) mushroom tyrosinase (MT), using the DOPA oxidation assay. Details of the assay mix are included in table 2. [table] Assay examined the change (Optical Density) OD475 nm at 37° C., after 45 minutes reaction in a standard 96-well plate. All ON475 nm were corrected by subtracting the background OD475 nm value of the negative control sample lacking enzyme in the assay mix. […] The background effect of 10% DMSO on tyrosinase activity was also examined for calculation purposes (i.e. the ‘U’ sample).

[1] = molecular target: T1, human Tyrosinase (in the form of melanocytic extract) (Homo sapiens, UniProt P14679); assay: Tyrosinase assay by oxidation of DOPA, human tyrosinase (melanocytic extract); format: biochemical; conditions: for OD475 nm (HME) / inhibition at 10 µM / % Inhibition (HME) / inhibition at 100 µM / inhibition at 1000 µM: 37° C., 45 minutes; for OD475 nm (HME): background-corrected, uninhibited enzyme control 0.141; for inhibition at 10 µM / inhibition at 100 µM / inhibition at 1000 µM: read-out: % Inhibition (HME); for inhibit the activity of tyrosinase: summary in words, at least one of human or mushroom tyrosinase, inhibitor = colour inhibited by more than 10% of control
T1 construct: 2.5 mg/ml human melanocytic lysate OR; endogenous in cells; host or cells: human melanocytes (lysate/extract)
T1 sequence (P14679 19-529): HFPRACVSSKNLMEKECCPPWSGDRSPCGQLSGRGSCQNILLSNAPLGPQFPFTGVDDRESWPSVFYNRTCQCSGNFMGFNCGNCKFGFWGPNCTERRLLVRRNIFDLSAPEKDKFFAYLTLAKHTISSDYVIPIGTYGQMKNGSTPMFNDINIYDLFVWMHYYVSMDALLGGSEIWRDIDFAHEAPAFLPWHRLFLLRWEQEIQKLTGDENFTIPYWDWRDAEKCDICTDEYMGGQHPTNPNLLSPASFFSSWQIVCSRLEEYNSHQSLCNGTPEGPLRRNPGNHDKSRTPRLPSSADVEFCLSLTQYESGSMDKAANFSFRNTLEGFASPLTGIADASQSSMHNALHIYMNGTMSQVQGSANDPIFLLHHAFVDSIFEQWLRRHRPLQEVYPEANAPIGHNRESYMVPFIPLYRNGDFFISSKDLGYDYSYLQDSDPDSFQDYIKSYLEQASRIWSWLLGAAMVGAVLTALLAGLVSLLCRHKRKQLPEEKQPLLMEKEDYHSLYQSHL
Protocol: as §1, with “[table]” left out

| SMILES | % Inhibition (MT) (mushroom tyrosinase (MT); 0.01 mM test compound) | OD475 nm (MT) (mushroom tyrosinase (MT); 0.01 mM test compound) | % Inhibition (MT) (mushroom tyrosinase (MT); 1 mM test compound) | OD475 nm (MT) (mushroom tyrosinase (MT); 1 mM test compound) | OD475 nm (HME) ([1]; 0.01 mM test compound) | inhibition at 10 µM ([1]; 0.01 mM test compound) | % Inhibition (HME) ([1]; 1 mM test compound) | OD475 nm (HME) ([1]; 1 mM test compound) | inhibit the activity of tyrosinase [1] | % Inhibition (MT) (mushroom tyrosinase (MT); 0.1 mM test compound) | OD475 nm (MT) (mushroom tyrosinase (MT); 0.1 mM test compound) | % Inhibition (MT) (mushroom tyrosinase (MT); 0.25 mM test compound) | OD475 nm (MT) (mushroom tyrosinase (MT); 0.25 mM test compound) | % Inhibition (MT) (mushroom tyrosinase (MT); 0.5 mM test compound) | OD475 nm (MT) (mushroom tyrosinase (MT); 0.5 mM test compound) | OD475 nm (HME) ([1]; 0.1 mM test compound) | inhibition at 100 µM ([1]; 0.1 mM test compound) | inhibition at 1000 µM ([1]; 1 mM test compound) | % Inhibition (HME) ([1]; 0.01 mM test compound) |
| --- | --- | --- | --- | --- | --- | --- | --- | --- | --- | --- | --- | --- | --- | --- | --- | --- | --- | --- | --- |
| O=C(NC1CCCCC1)N(C(=O)c1ccc2c(c1)OCCOCCOCCO2)C1CCCCC1 [Compound b] | 6% | 0.160 | 28% | 0.122 | 0.125 | 12% | No | 0.162 | inhibit the activity of at least one of human or mushroom tyrosinase |  |  |  |  |  |  |  |  |  |  |
| O=c1cc(CO)occ1O [Kojic acid, reference compound] |  |  |  |  |  |  |  |  |  | 23% | 0.131 | 35% | 0.111 | 51% | 0.084 |  |  |  |  |
| O=C(O)c1ccc2c(c1)OCCOCCOCCO2 [Compound a] |  |  | 60% | 0.068 |  |  |  | 0.029 | inhibit the activity of at least one of human or mushroom tyrosinase | 25% | 0.128 |  |  |  |  | 0.126 | 11% | 79% |  |
| COC(=O)C(C)(C)NC(=O)C(CC(C)C)NC(=O)C(C)NC(=O)c1ccc2c(c1)OCCOCCOCCOc1ccc(C(=O)NC(C)C(=O)NC(CC(C)C)C(=O)NC(C)(C)C(=O)OC)cc1OCCOCCOCCO2 (centres unmarked) [Compound d] | 19% | 0.137 | 69% | 0.053 | 0.144 |  |  | 0.110 | inhibit the activity of at least one of human or mushroom tyrosinase | 58% | 0.071 |  |  |  |  | 0.134 | 5% | 23% | No |
| O=C(O)c1ccc2c(c1)OCCOCCOCCOc1ccc(C(=O)O)cc1OCCOCCOCCO2 [Compound c] | 9% | 0.156 | 49% | 0.087 | 0.092 | 35% |  | 0.027 | inhibit the activity of at least one of human or mushroom tyrosinase | 5% | 0.162 |  |  |  |  | 0.094 | 33% | 81% |  |
